Results from patent publication US20080306007A1, “AGENTS FOR PROPHYLAXIS OR TREATMENT OF NEUROLOGICAL RELATED DISEASES AND CONDITIONS” (Newcastle Innovation Limited, priority 2007, published 2008).

Key:
[1] = system: synaptosomes (SV exocytosis); test: FM2-10 unloading (SV exocytosis) assay in synaptosomes; format: cell-based, rat; conditions: evoked by 30 mM KCl; peptide preincubated 30 min before unloading
Description: Loading of FM2-10 (Molecular Probes) into recycling synaptosomal SVs was measured as previously described. Data is presented as Ca^2+-dependent FM2-10 unloading, which is the difference between release after loading in plus and minus Ca^2+ solutions. Where indicated, synaptosomes were preincubated with penetratin peptide for 30 min prior to stimulation of FM2-10 loading. […] The same assay was used to monitor the effect of penetratin peptide on SV exocytosis. However, in this instance, the synaptosomes were loaded with FM2-10 in plus Ca^2+ Krebs-like solution and, where indicated, were preincubated with penetratin peptide for 30 min prior to stimulation of FM2-10 unloading. Data is presented as Ca^2+-dependent FM2-10 unloading. The SV internalisation assay was performed as previously described.
A block in SV turnover cannot be ascribed to an inhibition of SVE until an effect on exocytosis has been excluded. Two independent exocytosis assays were conducted to assess this: endogenous glutamate release and FM2-10 unloading. […] Finally, the extent of SVE inhibition by the peptides was quantified by calculating “retrieval efficiency” which takes into account prior exocytosis; a value of less than one indicating a selective SVE inhibition. […]

[2] = system: U2OS cells; test: Transferrin (Tfn) endocytosis (RME) in U2OS cells; format: cell-based; conditions: 15 min peptide preincubation at various concentrations, Tfn 15 min at 37° C.
Description: Briefly, non-neuronal U2OS cells were preincubated with vehicle only or each peptide at various concentrations for 15 min. Cells were then incubated with Tfn for 15 min at 37° C., acid washed, fixed and internalized Tfn was detected by fluorescence microscopy. Quantitative analysis of endocytosis in the presence of different concentrations of the peptides is shown as mean fluorescence as a percent of fluorescence in control cells. The results shown in FIG. 11 are representative of 2 independent experiments. Endocytosis in control cells (no peptide) is expressed as 100%.

[3] = molecular target: T1, dynamin I-syndapin I complex (Rattus norvegicus, UniProt Q9Z0W5); test: Peptide disruption of immunoprecipitated dynamin I-syndapin I complex from nerve terminals; format: binding; conditions: syndapin I or dynamin I immunoprecipitates incubated with peptide
T1 construct: Syndapin I or dynamin I were immunoprecipitated from nerve terminals; from tissue; host or cells: rat brain crude (P2) synaptosomes
T1 sequence (Q9Z0W5 whole entry, one chain of several): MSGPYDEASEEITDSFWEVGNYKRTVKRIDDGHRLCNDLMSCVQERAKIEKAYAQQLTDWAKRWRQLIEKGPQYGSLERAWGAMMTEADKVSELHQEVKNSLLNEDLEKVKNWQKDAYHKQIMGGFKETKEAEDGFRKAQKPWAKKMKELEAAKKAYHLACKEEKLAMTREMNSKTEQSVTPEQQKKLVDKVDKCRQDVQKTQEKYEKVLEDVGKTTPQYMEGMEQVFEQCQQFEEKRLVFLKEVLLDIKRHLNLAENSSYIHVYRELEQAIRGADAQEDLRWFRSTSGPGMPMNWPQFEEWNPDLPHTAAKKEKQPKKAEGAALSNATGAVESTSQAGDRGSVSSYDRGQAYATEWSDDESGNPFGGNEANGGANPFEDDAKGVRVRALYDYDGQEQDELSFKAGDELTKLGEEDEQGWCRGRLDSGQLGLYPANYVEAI
Description: To determine whether the phospho-box sequence might account for syndapin I recruitment to dynamin I, the ability of a DynI769-784AA peptide (FIG. 5a) to disrupt their interaction was tested. Syndapin I or dynamin I were immunoprecipitated from nerve terminals and the individual protein complexes were incubated with DynI769-784AA (SEQ ID No. 8) peptide (see below). Their interaction in both cases was reduced by the peptide, as indicated by the specific release of either binding partner from the bead-bound complex (FIG. 4c). No elution of endophilin I (FIG. 4c) or amphiphysin I (data not shown) was detected, highlighting the specificity of the interaction.
Crude (P2) synaptosomes were prepared from rat brain and lysed as described in Example 1.1.3. Synaptosome lysates were incubated with 5 μg of anti-syndapin I or […] pre-bound to protein G-sepharose (Roche) for 3 h at 4° C. Beads were washed with ice-cold PBS, eluted in SDS-PAGE sample buffer and blotted with anti-syndapin I, anti-endophilin I and anti-dynamin I antibodies.

[4] = system: synaptosomes (glutamate release); test: 4-AP evoked glutamate release (repetitive stimulation) in synaptosomes; format: cell-based, rat; conditions: 4-AP 1 mM
Description: In all SV recycling studies synaptosomes were prepared from rat cerebral cortex by centrifugation on discontinuous percoll gradients (Dunkley et al. 1986). The glutamate release assay was performed as described before (Cousin and Robinson 2000a). Data is presented as Ca^2+-dependent glutamate release, calculated as the difference between release in plus and minus Ca^2+ solutions. Penetratin peptides (Genemed Synthesis) were preincubated with the synaptosomes for 30 min before stimulation and had no effect on Ca^2+-independent release of glutamate.
Selective inhibition of SVE by the phospho-box peptide should produce a rundown or fatigue of glutamate release after repeated stimuli, since the supply of SVs will progressively decline. To produce repetitive stimulation in synaptosomes the K^+ channel blocker 4-aminopyridine (4-AP) was used. This produces a tetrodotoxin-sensitive repetitive firing that mimics in vivo stimulation. It has previously been reported that 4-AP evokes continual SV recycling for at least 15 minutes in synaptosomes. […] The inset is also zoomed on the first 3 min from 4-AP addition (which was at 60 s) to highlight the lack of effect during the first 45s.

Substance: DynI769-784AA: Dynamin I phospho-box mimetic peptide (residues 769-784), AA mutant, tagged with penetratin heptapeptide RRMKWKK (RRMKWKKPAGRRAPTSAPTPQRR; listed as Rattus norvegicus)
- FM2-10 unloading [1]: 81.1±0.8 % of control
- endocytosis of transferrin (Tfn), RME [2]: without effect
- dynamin I-syndapin I interaction (release of binding partner from bead-bound complex) [3]: reduced
- effect on the first 45 sec of 4-AP evoked exocytosis ([4]; first 45 sec): without effect
- effect on 4-AP evoked glutamate release with continued stimulation ([4]; repetitive stimulation): activity-dependent depression of release that increased with continued stimulation
